Data published in ChEMBL document CHEMBL4418294, “Morpholines as selective inhibitors of cytochrome P450 2A13” (2013).

species: Homo sapiens; experiment: Selectivity ratio of Kd for full length recombinant truncated non-catalytic N-terminal transmembrane helix containing C-terminal 4xHis tagged human CYP2A13dH expressed in Escherichia coli to Kd for full length recombinant truncated non-catalytic N-terminal transmembrane helix containing C-terminal 4xHis tagged human CYP2A6dH expressed in Escherichia coli

Row | Selectivity ratio | Compound
1 | 12.9 | CC1CN(Cc2cccc(Cl)c2Cl)CC(C)O1 (stereo unspecified)

molecular target: T1, Cytochrome P450 2A6 (Homo sapiens, UniProt P11509); experiment: Binding affinity to full length recombinant truncated non-catalytic N-terminal transmembrane helix containing C-terminal 4xHis tagged human CYP2A6dH expressed in Escherichia coli by HTS assay; format: ADME
T1 sequence (P11509 whole entry): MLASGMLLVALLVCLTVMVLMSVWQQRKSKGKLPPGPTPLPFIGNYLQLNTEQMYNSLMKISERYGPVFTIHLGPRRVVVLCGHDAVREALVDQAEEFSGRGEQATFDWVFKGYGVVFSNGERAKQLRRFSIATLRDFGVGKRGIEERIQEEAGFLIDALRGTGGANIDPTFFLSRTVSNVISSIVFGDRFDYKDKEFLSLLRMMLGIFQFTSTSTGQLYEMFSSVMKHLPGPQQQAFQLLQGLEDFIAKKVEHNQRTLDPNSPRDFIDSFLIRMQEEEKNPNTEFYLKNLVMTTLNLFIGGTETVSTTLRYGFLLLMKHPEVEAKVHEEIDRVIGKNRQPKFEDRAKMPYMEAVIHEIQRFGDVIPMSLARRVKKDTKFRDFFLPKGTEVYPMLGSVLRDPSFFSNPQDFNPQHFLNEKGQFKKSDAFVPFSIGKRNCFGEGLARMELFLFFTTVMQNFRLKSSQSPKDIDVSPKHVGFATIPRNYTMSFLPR

Row | Compound | Kd
2 | Brc1ccccc1CN1CCOCC1 | Not Active
3 | Fc1cccc(Cl)c1CN1CCOCC1 | Not Active

Continued, values first:

Row | Kd | Compound
4 | Not Active | Cc1ccccc1CN1CCOCC1
5 | Not Active | Fc1ccccc1CN1CCOCC1
6 | Not Active | Clc1ccccc1CN1CCOCC1
